Experimental data: patent US8080546B2, “Pyrazolo-pyridinone derivatives and methods of use” (Amgen Inc., priority 2007, dated 2011)
Like-named read-outs stand apart in the source and are kept apart here.

Experiments:
THP1 cells = assay: Lipopolysaccharide-activated THP1 cell TNF production assay (THP1 cell based); conditions: Homo sapiens, THP-1, LPS-induced TNF-α
Experimental: Lipopolysaccharide-Activated THP1 Cell TNF Production Assay
THP1 cells are resuspended in fresh THP1 media (RPMI 1640, 10% heat-inactivated FBS, 1XPGS, 1XNEAA, plus 30 μM PME) at a concentration of 1E6/mL. One hundred microliters of cells per well are plated in a polystyrene 96-well tissue culture. One microgram per mL of bacterial LPS is prepared in THP1 media and is transferred to the wells. Test compounds are dissolved in 100% DMSO and are serially diluted 3-fold in a polypropylene 96-well microtiter plate (drug plate). HI control and LO control wells contain only DMSO. One microliter of test compound from the drug plate followed by 10 μL of LPS are transferred to the cell plate. The treated cells are induced to synthesize and secrete TNF-α at 37° C. for 3 h. Forty microliters of conditioned media are transferred to a 96-well polypropylene plate containing 110 μL of ECL buffer (50 mM Tris-HCl pH 8.0, 100 mM NaCl, 0.05% Tween 20, 0.05% NaN3 and 1% FBS) supplemented with 0.44 nM MAB610 monoclonal Ab (R&D Systems), 0.34 nM ruthenylated AF210NA polyclonal Ab (R&D Systems) and 44 μg/mL sheep anti-mouse M280 Dynabeads (Dynal). After a 2 h incubation at room temperature with shaking, the reaction is read on the ECL M8 Instrument (IGEN Inc.). A low voltage is applied to the ruthenylated TNF-α immune complexes, which in the presence of TPA (the active component in Origlo), results in a cyclical redox reaction generating light at […]. The amount of secreted TNF-α in the presence of compound compared with that in the presence of DMSO vehicle alone (HI control) is calculated using the formula: % control (POC)=(cpd−average LO)/(average HI−average LO)*100. Data (consisting of POC and inhibitor concentration in μM) is fitted to a 4-parameter equation (y=A+((B−A)/(1+((x/C)^D))), where A is the minimum y (POC) value, B is the maximum y (POC), C is the x (cpd concentration) at the point of inflection and D is the slope factor) using a Levenburg-Marquardt non-linear regression algorithm.

p38 = p38 (Homo sapiens, UniProt Q16539); assay: p38 in-vitro HTRF enzyme assay; type: biochemical; conditions: recombinant human enzyme, read-out: p38 enyme HTRF assay IC50
Experimental: p38 In-Vitro HTRF Enzyme Assay
The compounds of the invention can be tested for their respective affinities for the p38 protein using a conventional p38 in-vitro enzyme activity assay. For example, a P38-alpha HTRF assay may be used to measure the protein's in-vitro phosphorylation activity, and the data analyzed using time resolved fluorimetry techniques (FRET). A p38 HTRF assay is as follows. The kinase reaction buffer for p38α, p38β, p38δ and p38γ HTRF assays consists of 50 mM Tris-pH 7.5, 5 mM MgCl2, 0.1 mg/mL BSA, 100 μM Na3VO4 and 0.5 mM DTT. The HTRF detection buffer contains 100 mM HEPES-pH 7.5, 100 mM NaCl, 0.1% BSA, 0.05% Tween-20, and 10 mM EDTA. Each compound was dissolved in 100% DMSO and serially diluted (3 fold, 10 point) in a polypropylene 96-well microtiter plate (drug plate). The final starting concentration of the compound in the p38α and p38β enzymatic assays was about 1 μM. The final starting concentration of each compound in the p38δ and p38γ enzymatic assays was about 10 μM. The p38α, p38β, p38δ and p38γ kinase reactions were carried out in a polypropylene 96-well black round bottom assay plate in total volume of 30 μL kinase reaction buffer. Appropriate concentration of purified and activated enzyme (recombinant human) was mixed with indicated concentration of ATP and 100 nM GST-ATF2-Avitag, in the presence or absence (HI control) of each compound. In the absence of enzyme, the background was measured as LO control. HI controls and LO controls contained only DMSO. The reaction was allowed to incubate for 1 hour at RT. […] After 60 minutes incubation at room temperature, the assay plate was read in a Discovery Plate Reader. […] The resulting data was analyzed by taking the proportion of substrate phosphorylated in the kinase reaction in the presence of each individual compound and comparing it with that phosphorylated in the presence of DMSO vehicle alone (HI control). The data was calculated using the formula: % control (POC)=(compound−average LO)/(average HI−average LO)*100. […] All results were expressed as the mean±the standard error of the mean. Data acquisition and non-linear regression algorithms were performed using Activity Base v5.2 and XLfit software v4.1 respectively. Additional assay information may be obtained in Park Y W, Cummings R T, Wu L, et al. Homogeneous Proximity Tyrosine Kinase Assays Scintillation Proximity Assay versus Homogeneous Time-Resolved Fluorescence. Analytical Biochemistry.

IL-1 = assay: LPS induced IL-1 cell based assay (LPS-activated monocytes); conditions: Homo sapiens, Monocyte
Experimental: Lipopolysaccharide-Activated Monocyte TNF Production Assay
Test compounds were evaluated in vitro for the ability to inhibit the production of TNF by monocytes activated with bacterial lipopolysaccharide (LPS). Fresh residual source leukocytes (a byproduct of plateletpheresis) were obtained from a local blood bank, and peripheral blood mononuclear cells (PBMCs) were isolated by density gradient centrifugation on Ficol-Paque Plus (Pharmacia). PBMCs were suspended at 2×10^6/mL in DMEM supplemented to contain 2% FCS, 10 mM, 0.3 mg/mL […], 100 U/mL penicillin G and […] streptomycin sulfate (complete media). Cells were plated into Falcon flat bottom, 96 well culture plates (200 μL/well) and cultured overnight at 37° C. and 6% CO2. Non-adherent cells were removed by washing with 200 μl/well of fresh medium. Wells containing adherent cells (˜70% monocytes) were replenished with 100 μL of fresh medium.
Preparation of Test Compound Stock Solutions
Test compounds were dissolved in […]. Compound stock solutions were prepared to an initial concentration of […]. Stocks were diluted initially to 20-200 μM in complete media. Nine two-fold serial dilutions of each compound were then prepared in complete medium.
Treatment of Cells with Test Compounds and Activation of TNF Production with Lipopolysaccharide
One hundred microliters of each test compound dilution were added to microtiter wells containing adherent monocytes and 100 μL complete medium. Monocytes were cultured with test compounds for 60 min at which time 25 μL of complete medium containing 30 ng/mL lipopolysaccharide from E. coli K532 were added to each well. Cells were cultured an additional 4 hrs. Culture supernatants were then removed and TNF presence in the supernatants was quantified using an ELISA. […]
Standard curve data were fit to a second order polynomial and unknown TNF-α concentrations determined from their OD by solving this equation for concentration. TNF concentrations were then plotted vs. test compound concentration using a second order polynomial. This equation was then used to calculate the concentration of test compounds causing a 50% reduction in TNF production.
Compounds of the invention can also be shown to inhibit LPS-induced release of IL-1β, IL-6 and/or IL-8 from monocytes by measuring concentrations of IL-1β, IL-6 and/or IL-8 by methods well known to those skilled in the art. […] Thus, the compounds of the invention may lower elevated levels of TNF-α, IL-1, IL-6, and IL-8 levels. Reducing elevated levels of these inflammatory cytokines to basal levels or below is favorable in controlling, slowing progression, and alleviating many disease states.

Chain of p38 (Q16539 whole entry): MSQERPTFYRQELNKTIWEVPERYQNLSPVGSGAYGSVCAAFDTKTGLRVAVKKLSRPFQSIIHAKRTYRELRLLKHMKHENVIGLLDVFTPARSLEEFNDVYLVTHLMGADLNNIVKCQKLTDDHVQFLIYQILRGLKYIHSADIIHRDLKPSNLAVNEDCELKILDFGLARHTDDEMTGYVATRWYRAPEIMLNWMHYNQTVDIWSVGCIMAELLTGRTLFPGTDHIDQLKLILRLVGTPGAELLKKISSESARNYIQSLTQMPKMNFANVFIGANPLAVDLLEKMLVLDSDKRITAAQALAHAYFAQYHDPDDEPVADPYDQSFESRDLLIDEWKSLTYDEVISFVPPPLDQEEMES

| SMILES | IC50 (THP1 cells; range symbols) | IC50 (p38; range symbols) | IC50 (IL-1; range symbols) | IC50 (THP1 cells; actual values) | IC50 (p38; actual values) | IC50 (IL-1; actual values) |
| --- | --- | --- | --- | --- | --- | --- |
| Cn1c(=O)cc(Nc2cc(C(=O)NC3CC3)ccc2F)c2cnn(-c3ccc(F)cc3F)c21 [Example 7, N-cyclopropyl-3-((1-(2,4-difluorophenyl)-7-methyl-6-oxo-6,7-dihydro-1H-pyrazolo[3,4-b]pyridin-4-yl)amino)-4-fluorobenzamide] | < 25 nM | < 25 nM | 25 to 99 nM | – | – | – |
| Cn1c(=O)cc(Nc2ccc(F)cc2F)c2cnn(-c3ccc(F)cc3F)c21 [Example 9, 1-(2,4-difluorophenyl)-4-((2,4-difluorophenyl)amino)-7-methyl-1,7-dihydro-6H-pyrazolo[3,4-b]pyridin-6-one] | 250 to 999 nM | 1000 to 5000 nM | 1000 to 5000 nM | – | – | – |
| Cc1ccc(C(=O)NC2CC2)cc1Nc1cc(=O)n(C)c2c1cnn2-c1cccc(F)c1 [Example 4, N-cyclopropyl-3-((1-(3-fluorophenyl)-7-methyl-6-oxo-6,7-dihydro-1H-pyrazolo[3,4-b]pyridin-4-yl)amino)-4-methylbenzamide] | < 25 nM | < 25 nM | < 25 nM | – | – | – |
| Cc1ccncc1Nc1cc(=O)n(C)c2c1cnn2-c1cc(F)ccc1F [Example 8, 1-(2,5-difluorophenyl)-7-methyl-4-((4-methyl-3-pyridinyl)amino)-1,7-dihydro-6H-pyrazolo[3,4-b]pyridin-6-one] | 100 to 249 nM | 1000 to 5000 nM | 250 to 999 nM | – | – | – |
| Cc1ccc(C(=O)NC2CC2)cc1Oc1cc(=O)n(C)c2c1cnn2-c1cccc(F)c1 [Example 5, N-cyclopropyl-3-((1-(3-fluorophenyl)-7-methyl-6-oxo-6,7-dihydro-1H-pyrazolo[3,4-b]pyridin-4-yl)oxy)-4-methylbenzamide] | < 25 nM | < 25 nM | 100 to 249 nM | – | – | – |

More lines, now with the values ahead:

| IC50 (THP1 cells; range symbols) | IC50 (p38; range symbols) | IC50 (IL-1; range symbols) | IC50 (THP1 cells; actual values) | IC50 (p38; actual values) | IC50 (IL-1; actual values) | SMILES |
| --- | --- | --- | --- | --- | --- | --- |
| < 25 nM | < 25 nM | < 25 nM | – | – | – | Cc1ccc(C(N)=O)cc1Nc1cc(=O)n(C)c2c1cnn2-c1ccc(F)cc1F [Example 18, 3-((1-(2,4-difluorophenyl)-7-methyl-6-oxo-6,7-dihydro-1H-pyrazolo[3,4-b]pyridin-4-yl)amino)-4-methylbenzamide] |
| 1000 to 5000 nM | 1000 to 5000 nM | 1000 to 5000 nM | – | – | – | Cc1ccc(C(=O)O)cc1Nc1cc(=O)n(C)c2c1cnn2-c1ccc(F)cc1F [Example 17, 3-((1-(2,4-difluorophenyl)-7-methyl-6-oxo-6,7-dihydro-1H-pyrazolo[3,4-b]pyridin-4-yl)amino)-4-methylbenzoic acid] |
| – | – | – | 0.8 nM | 2.1 nM | 4.2 nM | Cn1c(=O)cc(Nc2cc(C(=O)NC3CC3)ccc2Cl)c2cnn(-c3ccc(F)cc3)c21 [Example 28, 4-chloro-N-cyclopropyl-3-((1-(4-fluorophenyl)-7-methyl-6-oxo-6,7-dihydro-1H-pyrazolo[3,4-b]pyridin-4-yl)amino)benzamide] |
| < 25 nM | < 25 nM | < 25 nM | – | – | – | CCn1c(=O)cc(Nc2cc(C(=O)NC3CC3)ccc2C)c2cnn(-c3ccc(F)cc3)c21 [Example 23, N-cyclopropyl-3-((7-ethyl-1-(4-fluorophenyl)-6-oxo-6,7-dihydro-1H-pyrazolo[3,4-b]pyridin-4-yl)amino)-4-methylbenzamide] |
| < 25 nM | < 25 nM | < 25 nM | – | – | – | Cc1ccc(C(=O)NC2CC2)cc1Nc1cc(=O)n(C)c2c1cnn2-c1cc(F)ccc1F [Example 20, N-cyclopropyl-3-((1-(2,5-difluorophenyl)-7-methyl-6-oxo-6,7-dihydro-1H-pyrazolo[3,4-b]pyridin-4-yl)amino)-4-methylbenzamide] |
| – | – | – | 0.6 nM | 1.6 nM | 3.8 nM | CONC(=O)c1ccc(C)c(Nc2cc(=O)n(C)c3c2cnn3-c2ccc(F)cc2F)c1 [Example 30, 3-((1-(2,4-difluorophenyl)-7-methyl-6-oxo-6,7-dihydro-1H-pyrazolo[3,4-b]pyridin-4-yl)amino)-N-methoxy-4-methylbenzamide] |
| < 25 nM | < 25 nM | 25 to 99 nM | – | – | – | CCn1c(=O)cc(Oc2cc(C(=O)NC3CC3)ccc2C)c2cnn(-c3ccc(F)cc3)c21 [Example 24, N-cyclopropyl-3-((7-ethyl-1-(4-fluorophenyl)-6-oxo-6,7-dihydro-1H-pyrazolo[3,4-b]pyridin-4-yl)oxy)-4-methylbenzamide] |
